Source: US6436992B1, “Use of fumaric acid derivatives” (Fumapharm AG, priority 1997, dated 2002)

Test system: haemagglutinin formation in mice
Assay: Inhibition of haemagglutinin formation in mice immunised with sheep erythrocytes, after peroral administration
Assay type: in vivo
[1] = mice, 150 mg/kg bodyweight p.o.
[2] = mice, 300 mg/kg bodyweight p.o.
[3] = mice, 600 mg/kg bodyweight p.o.

Which “Inhibition of haemagglutinin formation in %” value (from here on “Inhibition … in %”) [1] does the source give for `COC(=O)/C=C/C(=O)[O-].[Ca+]` [Methyl hydrogen fumarate-Ca salt] here?
The value was 13%.

What about the Suppression index [1] of the same compound?
Its Suppression index is 0.87.

And the “Inhibition … in %” value [2]?
Its value is 20%.

And the Suppression index [2]?
The Suppression index was 0.80.

And the “effect on haemagglutinin formation (in words)” value (mice, 300 mg/kg p.o.)?
The value was “slight reduction”.

And the “Inhibition … in %” value [3]?
Its value is 38%.

And the Suppression index [3]?
Its Suppression index is 0.62.

And the “suppressive effect on haemagglutinin formation (in words, over dose range)” value (mice, 150, 300 and 600 mg/kg p.o.)?
Its value is “dosage-dependent suppressive effect”.

And the “immuno-suppressive effect (conclusion)” value (mice, p.o.)?
The value was “significant immuno-suppressive effect”.
